Read-outs that look alike come from different tables or passages of the source.
Target: T1, androgen receptor (AR) (Homo sapiens, UniProt P10275)
T1 construct: transfecting C2C12 cells with a plasmid containing full-length AR; expressed in transfected cells; host or cells: mouse myoblastic C2C12 cells (ATCC CRL-1772), transiently transfected with AR-FL in pcDNA 3.1(+)
T1 sequence (P10275 1-920): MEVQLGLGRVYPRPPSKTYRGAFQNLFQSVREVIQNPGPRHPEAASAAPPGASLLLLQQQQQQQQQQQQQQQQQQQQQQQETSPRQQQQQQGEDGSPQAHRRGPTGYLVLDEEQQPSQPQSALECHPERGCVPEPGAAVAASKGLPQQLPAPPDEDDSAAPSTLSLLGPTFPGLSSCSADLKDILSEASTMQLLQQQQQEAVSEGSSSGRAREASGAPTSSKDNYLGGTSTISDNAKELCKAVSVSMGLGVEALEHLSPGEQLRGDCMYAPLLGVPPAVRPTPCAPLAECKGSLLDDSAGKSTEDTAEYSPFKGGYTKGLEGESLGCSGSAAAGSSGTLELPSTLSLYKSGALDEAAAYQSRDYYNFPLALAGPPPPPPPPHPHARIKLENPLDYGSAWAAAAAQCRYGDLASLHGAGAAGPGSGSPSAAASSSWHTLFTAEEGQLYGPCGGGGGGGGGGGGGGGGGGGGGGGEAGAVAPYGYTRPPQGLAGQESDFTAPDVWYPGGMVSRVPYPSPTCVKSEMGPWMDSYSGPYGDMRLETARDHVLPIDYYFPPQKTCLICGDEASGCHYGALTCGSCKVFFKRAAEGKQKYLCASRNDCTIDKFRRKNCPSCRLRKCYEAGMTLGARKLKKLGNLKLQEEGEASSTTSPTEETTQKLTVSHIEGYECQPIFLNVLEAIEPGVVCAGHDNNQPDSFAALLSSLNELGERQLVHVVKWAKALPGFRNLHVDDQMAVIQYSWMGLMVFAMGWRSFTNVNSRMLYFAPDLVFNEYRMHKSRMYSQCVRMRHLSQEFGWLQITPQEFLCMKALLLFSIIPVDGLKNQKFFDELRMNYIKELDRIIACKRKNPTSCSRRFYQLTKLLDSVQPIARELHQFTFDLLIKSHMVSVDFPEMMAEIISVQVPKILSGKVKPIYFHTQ
Test: Test 1: androgen receptor transcriptional activation (2XIDR17-luciferase) assay in transfected C2C12 cells
Format: cell-based
Settings: for Emax: percentage activity relative to 1 μM DHT, read-out: Biological activity (C2C12 cell) Emax % (converted)
Method: A suitable assay to determine the ability of a ligand to transcriptionally activate androgen receptor (AR) is carried out using mouse myoblastic C2C12 cells. The assay involves transfecting C2C12 cells with a plasmid containing full-length AR along with an AR response element linked to luciferase (2XIDR17). The luminescence read-out at the end of the assay is measured using Victor 3 and is a direct measure of the transcriptional activity. The assay has been validated using the reference compound, BMS-564929, for which EC50 values have been reported in a similar set-up.
C2C12 cells were obtained from ATCC (Cat #CRL-1772) and maintained in DMEM modified to contain 4 mM L-glutamine, 4.5 g/L glucose, 1 mM sodium pyruvate and 1.5 g/L sodium bicarbonate and 10% FBS.
AR-FL in pcDNA 3.1(+) and 2XIDR17 in pGL4.26 plasmids prepared using Genelute plasmid miniprep kit from Sigma Cat #PLED35 Steadyglow Luciferase assay system Promega Cat #E2550
• C2C12 cells were seeded in a 96-well plate in DMEM (Dulbecco's Modified Eagle Medium) without phenol red and containing 10% CS-FBS (Charcoal-stripped Fetal Bovine Serum) at 8000 cells/well. • The next day, cells were transfected with an equimolar ratio of (Androgen Receptor-Full length) AR-FL and 2XIDR17-Luciferase at a total plasmid concentration of 200 ng/well using Lipofectamine 2000 following manufacturer's protocol. • For the transfection, 83 ng of AR-FL and 117 ng of 2XIDR17-Luciferase were in 12.5 μl of OptiMEM—Mix A. 0.4 μl of Lipofectamine 2000 was added to 12.5 μl of OptiMEM and incubated for 5 min at room temperature—Mix B. The two mixes A and B were mixed and incubated at room temperature for an additional fifteen minutes. An additional 50 μl of OptiMEM was added, gently mixed and this mixture was added to the cells in the 96-well plate. The above quantities are requirements per well of a 96-well plate. Master mixes were made for the entire plate, with proportional quantity of reagents being used. • 5 h after transfection, compounds were added to the wells in DMEM without phenol red and containing 10% CS-FBS, maintaining a final DMSO concentration of 0.5%. A typical dose response curve starts at 10 μM and includes a 7-point, log dilution, done in triplicates. • After overnight incubation with the compounds, 100 ul of working solution of Steadyglow reagent was added to the wells. • The plates were placed in a shaker for 15 min at the end of which the lysate containing luciferase was transferred to a white flat-bottom plate and read under a luminescence setting in Victor. • Background subtracted counts (Luminescence from DMSO control wells is considered the background) are used to calculate percentage activity, expressed relative to activity with 1 μM (Dihydrotestosterone) DHT (at least two sets of triplicates for 1 μM DHT are included per plate).
The EC50 curves for the compounds for 8 compound concentrations were fitted by the respective function using non-linear least-squares regression in Graphpad Prism 4.0 (Graphpad Software, San Diego, Calif., USA).

[1] = mouse myoblastic C2C12 cells transfected with full-length AR and 2XIDR17-luciferase, read-out: Biological activity (C2C12 cell) EC50
[2] = C2C12 cells, read-out: EC50 value in test 1
[3] = C2C12 cells, compound at 100 nM, relative to 1 μM DHT
[4] = C2C12 cells, compound at 5 μM, relative to 1 μM DHT

Compound	Emax (C2C12, C2C12 cells) [%]	EC50 [2] [nM]	further results
Cc1c(N2C(=O)N(C)C3(CCC(O)C3)C2=O)ccc(C#N)c1Cl (stereo not drawn) [Example 6.0, 2-chloro-4-(7-hydroxy-1-methyl-2,4-dioxo-1,3-diazaspiro[4.4]nonan-3-yl)-3-methylbenzonitrile]	70		EC50 [1]: 53 nM
Cc1c(N2C(=O)N(CCOCC(C)C)C3(CCCC3)C2=O)ccc(C#N)c1Cl [2-chloro-4-(1-(2-isobutoxyethyl)-2,4-dioxo-1,3-diazaspiro[4.4]nonan-3-yl)-3-methylbenzonitrile]		> 30000	
Cc1c(N2C(=O)N(CCC#N)C3(CCCC3)C2=O)ccc(C#N)c1Cl [Example 9.8, 2-chloro-4-(1-(2-cyanoethyl)-2,4-dioxo-1,3-diazaspiro[4.4]nonan-3-yl)-3-methylbenzonitrile]	85		EC50 [1]: 169 ± 82 nM
Cc1c(N2C(=O)N(Cc3cnco3)C3(CCCC3)C2=O)ccc(C#N)c1Cl [Example 8.9, 2-chloro-3-methyl-4-(1-(oxazol-5-ylmethyl)-2,4-dioxo-1,3-diazaspiro[4.4]nonan-3-yl)benzonitrile]	87		EC50 [1]: 25 nM
Cc1c(N2C(=O)N(C)C3(C=CCC3)C2=O)ccc(C#N)c1Cl (stereo not drawn) [1.5]	66		
Cc1c(N2C(=O)N(C)C3(CCCC3C)C2=O)ccc(C#N)c1Cl (stereo not drawn) [1.7]	91		
Cc1ncc(CN2C(=O)N(c3ccc(C#N)c(Cl)c3C)C(=O)C23CCCC3)o1 [Example 8.10, 2-chloro-3-methyl-4-(1-((2-methyloxazol-5-yl)methyl)-2,4-dioxo-1,3-diazaspiro[4.4]nonan-3-yl)benzonitrile]			% Biological activity (C2C12 cell) 100 nM [3]: 20%; % Biological activity (C2C12 cell) 5 μM [4]: 66%
Cc1c(N2CC3(CCCC3F)OC2=O)ccc(C#N)c1Cl (stereo not drawn) [2-chloro-4-(6-fluoro-2-oxo-1-oxa-3-azaspiro[4.4]nonan-3-yl)-3-methylbenzonitrile]		> 30000	
CCOCCN1C(=O)N(c2ccc(C#N)c(Cl)c2C)C(=O)C12CCCC2 [2-chloro-4-(1-(2-ethoxyethyl)-2,4-dioxo-1,3-diazaspiro[4.4]nonan-3-yl)-3-methylbenzonitrile]		> 30000	
COC1N(c2ccc(C#N)c(Cl)c2C)C(=O)N(C)C12CCCC2 (stereo not drawn) [2-chloro-4-(4-methoxy-1-methyl-2-oxo-1,3-diazaspiro[4.4]nonan-3-yl)-3-methylbenzonitrile]		> 30000	
Cc1c(N2C(=O)N(C)[C@]3(CCC[C@@H]3F)C2=O)ccc(C#N)c1Cl [1.4(iv), 2-chloro-4-((5R,6S)-6-fluoro-1-methyl-2,4-dioxo-1,3-diazaspiro[4.4]nonan-3-yl)-3-methylbenzonitrile]			EC50 [1]: 0.79 nM
Cc1c(N2CC3(CCCC3F)N(C)C2=O)ccc(C#N)c1Cl (stereo not drawn) [2-chloro-4-(6-fluoro-1-methyl-2-oxo-1,3-diazaspiro[4.4]nonan-3-yl)-3-methylbenzonitrile]		> 30000	
Cc1c(N2C(=O)N(C)C3(CCC(F)C3)C2=O)ccc(C#N)c1Cl (stereo not drawn) [6.1]	99		
Cc1c(N2C(=O)N(CCCF)C3(CCCC3)C2=O)ccc(C#N)c1Cl [Example 9.9, 2-chloro-4-(1-(3-fluoropropyl)-2,4-dioxo-1,3-diazaspiro[4.4]nonan-3-yl)-3-methylbenzonitrile]			% Biological activity (C2C12 cell) 100 nM [3]: 27%; % Biological activity (C2C12 cell) 5 μM [4]: 52%
Cc1c(N2C(=O)N(CCOCC#N)C3(CCCC3)C2=O)ccc(C#N)c1Cl [Example 9.3, 2-chloro-4-(1-(2-(cyanomethoxy)ethyl)-2,4-dioxo-1,3-diazaspiro[4.4]nonan-3-yl)-3-methylbenzonitrile]	91		EC50 [1]: 19.9 ± 1.7 nM
Cc1c(N2C(=O)N(CC3CCOCC3)C3(CCCC3)C2=O)ccc(C#N)c1Cl [2-chloro-4-(2,4-dioxo-1-((tetrahydro-2H-pyran-4-yl)methyl)-1,3-diazaspiro[4.4]nonan-3-yl)-3-methylbenzonitrile]			percent activity relative to 1 μM DHT at a single concentration at 0.1 µM (C2C12, C2C12 cells, compound at 100 nM, relative to 1 μM DHT, read-out: % Biological activity (C2C12 cell) 100 nM): 5%; percent activity relative to 1 μM DHT at a single concentration at 5 µM (C2C12, C2C12 cells, compound at 5 μM, relative to 1 μM DHT, read-out: % Biological activity (C2C12 cell) 5 μM): 12%
Cc1c(N2C(=O)N(CCOC(C)C)C3(CCCC3)C2=O)ccc(C#N)c1Cl [2-chloro-4-(1-(2-isopropoxyethyl)-2,4-dioxo-1,3-diazaspiro[4.4]nonan-3-yl)-3-methylbenzonitrile]		> 30000	

Source: US20150299120A1, “Spirohydantoin compounds and their use as selective androgen receptor modulators” (NOVARTIS AG, priority 2012, published 2015)
